Assay results published in patent US20240383904A1, “HETEROCYCLIC COMPOUNDS” (Hoffmann-La Roche Inc., priority 2021, published 2024).

These compounds were tested against T1, MAGL (Homo sapiens, UniProt Q99685) (assay: 2-AG assay: MAGL inhibitory activity by hydrolysis of 2-arachidonoylglycerol to arachidonic acid, followed by mass spectrometry). Details: 15 min preincubation, 30 min reaction at RT, 8 μM 2-arachidonoylglycerol.
T1 sequence (Q99685 1-303): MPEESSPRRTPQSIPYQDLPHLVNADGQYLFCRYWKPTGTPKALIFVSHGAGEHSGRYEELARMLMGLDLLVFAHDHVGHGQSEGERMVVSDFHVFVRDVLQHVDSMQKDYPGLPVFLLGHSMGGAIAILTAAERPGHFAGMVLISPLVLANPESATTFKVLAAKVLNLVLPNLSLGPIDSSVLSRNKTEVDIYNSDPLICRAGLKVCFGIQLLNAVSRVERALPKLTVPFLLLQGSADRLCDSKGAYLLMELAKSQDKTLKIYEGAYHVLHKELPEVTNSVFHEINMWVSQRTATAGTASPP
Assay type: biochemical
With N#Cc1cc(C(F)(F)F)ncc1O[C@H]1CCC2(C1)CN(C(=O)N1CC3(COC(=O)N3)C1)C2 [Example 209, 5-[[(6S)-2-(6-oxo-7-oxa-2,5-diazaspiro[3.4]octane-2-carbonyl)-2-azaspiro[3.4]octan-6-yl]oxy]-2-(trifluoromethyl)pyridine-4-carbonitrile] the IC50 was 6.28 nM.
In the case of N#Cc1cc(C(F)(F)F)ncc1CC1CCC2(C1)CN(C(=O)N1CC3(COC(=O)N3)C1)C2 (centres unmarked) [Example 210, 5-[[2-(6-oxo-7-oxa-2,5-diazaspiro[3.4]octane-2-carbonyl)-2-azaspiro[3.4]octan-6-yl]methyl]-2-(trifluoromethyl)pyridine-4-carbonitrile], the IC50 is reported as 0.84 nM.
N#Cc1cc(C(F)(F)F)ncc1CC1CC2(C1)CN(C(=O)N1CC3(COC(=O)N3)C1)C2 [Example 211, 5-[[2-(6-oxo-7-oxa-2,5-diazaspiro[3.4]octane-2-carbonyl)-2-azaspiro[3.3]heptan-6-yl]methyl]-2-(trifluoromethyl)pyridine-4-carbonitrile] was tested, and the IC50 was 0.39 nM.
Compound N#Cc1cc(C(F)(F)F)ncc1C[C@H]1CCC2(C1)CN(C(=O)N1CC3(COC(=O)N3)C1)C2 [Example 212, 5-[[(6S)-2-(6-oxo-7-oxa-2,5-diazaspiro[3.4]octane-2-carbonyl)-2-azaspiro[3.4]octan-6-yl]methyl]-2-(trifluoromethyl)pyridine-4-carbonitrile] has an IC50 of 0.46 nM.
Compound N#Cc1cc(C(F)(F)F)ncc1C[C@@H]1CCC2(C1)CN(C(=O)N1CC3(COC(=O)N3)C1)C2 [Example 213, 5-[[(6R)-2-(6-oxo-7-oxa-2,5-diazaspiro[3.4]octane-2-carbonyl)-2-azaspiro[3.4]octan-6-yl]methyl]-2-(trifluoromethyl)pyridine-4-carbonitrile] has an IC50 of 0.55 nM.
Work on N#Cc1cc(C(F)(F)F)ncc1O[C@H]1CCC2(C1)CN(C(=O)N1CC3(COCC(=O)N3)C1)C2 [Example 214, 5-[[(6S)-2-(6-oxo-8-oxa-2,5-diazaspiro[3.5]nonane-2-carbonyl)-2-azaspiro[3.4]octan-6-yl]oxy]-2-(trifluoromethyl)pyridine-4-carbonitrile] yielded an IC50 of 386 nM.
Work on O=C1CCC2(CN(C(=O)N3CC4(CC(Cc5ccc(S(=O)(=O)C6CC6)cc5)C4)C3)C2)N1 [Example 215, 2-[6-[(4-cyclopropylsulfonylphe-nyl)methyl]-2-azaspiro[3.3]heptane-2-carbonyl]-2,5-diazaspiro[3.4]octan-6-one] yielded an IC50 of 3.2 nM.
With O=C1CCC2(CN(C(=O)N3CC4(CC(Cc5cnn(C(F)(F)F)c5)C4)C3)C2)N1 [Example 216, 2-[6-[[1-(trifluoromethyl)pyrazol-4-yl]methyl]-2-azaspiro[3.3]heptane-2-carbonyl]-2,5-diazaspiro[3.4]octan-6-one] the IC50 was 17.6 nM.
In the case of N#Cc1cc(CC2CC3(C2)CN(C(=O)N2CC4(CCC(=O)N4)C2)C3)cc(C(F)(F)F)c1 [Example 217, 3-[[2-(6-oxo-2,5-diazaspiro[3.4]octane-2-carbonyl)-2-azaspiro[3.3]heptan-6-yl]methyl]-5-(trifluoromethyl)benzoni-trile], the IC50 is reported as 0.78 nM.
Compound O=C1CCC2(CN(C(=O)N3CC4(CCN(Cc5ccc(S(=O)(=O)C(F)(F)F)cc5)C4)C3)C2)N1 [Example 218, 2-[7-[[4-(trifluoromethylsulfonyl)phenyl]methyl]-2,7-diazaspiro[3.4]octane-2-carbonyl]-2,5-diazaspiro[3.4]octan-6-one] has an IC50 of 87.3 nM.
Compound N#Cc1ccc(CC2CC3(C2)CN(C(=O)N2CC4(CCC(=O)N4)C2)C3)cc1C(F)(F)F [Example 219, 4-[[2-(6-oxo-2,5-diazaspiro[3.4]octane-2-carbonyl)-2-azaspiro[3.3]heptan-6-yl]methyl]-2-(trifluoromethyl)benzoni-trile] has an IC50 of 0.43 nM.
Work on O=C1CCC2(CN(C(=O)N3CC4(CC(Cc5cc(C(F)(F)F)n[nH]5)C4)C3)C2)N1 [Example 220, 2-[6-[[3-(trifluoromethyl)-1H-pyrazol-5-yl]methyl]-2-azaspiro[3.3]heptane-2-carbonyl]-2,5-diazaspiro[3.4]octan-6-one] yielded an IC50 of 4.18 nM.
O=C1CCC2(CN(C(=O)N3CC4(CC[C@H](Cc5ccc(S(=O)(=O)C(F)(F)F)cc5)C4)C3)C2)N1 [Example 221, 2-[(6R)-6-[[4-(trifluoromethylsulfonyl)phenyl]methyl]-2-azaspiro[3.4]octane-2-carbonyl]-2,5-diazaspiro[3.4]octan-6-one] showed an IC50 of 1.31 nM.
With O=C1CCC2(CN(C(=O)N3CC4(CC[C@@H](Cc5ccc(S(=O)(=O)C(F)(F)F)cc5)C4)C3)C2)N1 [Example 222, 2-[(6S)-6-[[4-(trifluoromethylsulfonyl)phenyl]methyl]-2-azaspiro[3.4]octane-2-carbonyl]-2,5-diazaspiro[3.4]octan-6-one] the IC50 was 2.27 nM.
O=C1CCC2(CN(C(=O)N3CC4(CC[C@H](Cc5cccc(S(=O)(=O)C(F)(F)F)c5)C4)C3)C2)N1 [Example 223, 2-[(6R)-6-[[3-(trifluoromethylsulfonyl)phenyl]methyl]-2-azaspiro[3.4]octane-2-carbonyl]-2,5-diazaspiro[3.4]octan-6-one] gave an IC50 of 0.96 nM.
For O=C1CCC2(CN(C(=O)N3CC4(CC[C@@H](Cc5cccc(S(=O)(=O)C(F)(F)F)c5)C4)C3)C2)N1 [Example 224, 2-[(6S)-6-(3-triflylbenzyl)-2-azaspiro[3.4]octane-2-carbonyl]-2,5-diazaspiro[3.4]octan-6-one], the IC50 was 0.23 nM.
For O=C1CCC2(CN(C(=O)N3CC4(CC(Cn5ccc(C(F)(F)F)n5)C4)C3)C2)N1 [Example 225, 2-[6-[[3-(trifluoromethyl)pyrazol-1-yl]methyl]-2-azaspiro[3.3]heptane-2-carbonyl]-2,5-diazaspiro[3.4]octan-6-one], the IC50 was 17 nM.
For O=C1COCC2(CN(C(=O)N3CC4(CCC(Cc5cnc(C(F)(F)F)cn5)CC4)C3)C2)N1 [Example 226, 2-[7-[[5-(trifluoromethyl)pyrazin-2-yl]methyl]-2-azaspiro[3.5]nonane-2-carbonyl]-8-oxa-2,5-diazaspiro[3.5]nonan-6-one], the IC50 was 45.9 nM.
O=C1COCC2(CN(C(=O)N3CC4(CC(n5cnc(C6CC6)n5)C4)C3)C2)N1 [Example 227, 2-[6-(3-cyclopropyl-1,2,4-triazol-1-yl)-2-azaspiro[3.3]heptane-2-carbonyl]-8-oxa-2,5-diazaspiro[3.5]nonan-6-one] was tested, and the IC50 was 1800 nM.
For O=C1COCC2(CN(C(=O)N3CC4(CC(c5ccc(C(F)(F)F)cc5F)C4)C3)C2)N1 [Example 228], the IC50 was 18.4 nM.
O=C1COCC2(CN(C(=O)N3CC4(CN(Cc5ccc(S(=O)(=O)C(F)(F)F)cc5)C4)C3)C2)N1 [Example 229, 2-[6-[[4-(trifluoromethylsulfonyl)phenyl]methyl]-2,6-diazaspiro[3.3]heptane-2-carbonyl]-8-oxa-2,5-diazaspiro[3.5]nonan-6-one] was tested, and the IC50 was 78.4 nM.
Work on O=C1COCC2(CN(C(=O)N3CC4(CC(Cn5cc(C(F)(F)F)cn5)C4)C3)C2)N1 [Example 230, 2-[6-[[4-(trifluoromethyl)pyrazol-1-yl]methyl]-2-azaspiro[3.3]heptane-2-carbonyl]-8-oxa-2,5-diazaspiro[3.5]nonan-6-one] yielded an IC50 of 59 nM.
For O=C1COCC2(CN(C(=O)N3CC4(CC(Cc5ccc(C(F)(F)F)nn5)C4)C3)C2)N1 [Example 231, 2-[6-[[6-(trifluoromethyl)pyrida-zin-3-yl]methyl]-2-azaspiro[3.3]heptane-2-carbonyl]-8-oxa-2,5-diazaspiro[3.5]nonan-6-one], the IC50 was 255 nM.
